# Assay results: paper PMC5843811, “^44Sc for labeling of DOTA- and NODAGA-functionalized peptides: preclinical in vitro and in vivo investigations” (EJNMMI Radiopharmacy and Chemistry, 2016)
# How the values were obtained:
# [1] = Biodistribution in AR42J tumor-bearing mice; conditions: female, CD-1 nude (athymic nude), mouse, iv, total radioactivity, i.v. ~5 MBq (~1 nmol), mean ± SD, n=3; for tissue to tissue ratio at 0.5 h / tissue uptake at 0.5 h: 30 min p.i.; for tissue to tissue ratio at 2 h / tissue uptake at 2 h: 2 h p.i.; for tissue to tissue ratio at 5 h / tissue uptake at 5 h: 5 h p.i.; for tissue uptake at 0.5 h / tissue uptake at 2 h / tissue uptake at 5 h: Biodistribution
# Protocol: Female athymic nude mice (CD-1 nude), age 5–6 weeks, were obtained from Charles River Laboratories, Sulzfeld, Germany. U87MG cells and AR42J-cells were suspended in PBS (5 × 10^6 cells in 100 μL) and subcutaneously inoculated on each shoulder. Two to three weeks later, when the tumor reached a size of about 300–500 mm^3, the mice were used for the in vivo studies.
# Biodistribution studies were performed with U87MG tumor and AR42J tumor-bearing mice 2 weeks after tumor cell inoculation. ^44Sc- and ^68Ga-labeled peptides (~5 MBq, ~1 nmol per mouse) were intravenously injected in a volume of 100–200 μL. Mice were sacrificed at 30 min, 2 h and 5 h after injection (p.i.) of the ^44Sc-labeled peptides. Mice which were injected with ^68Ga-labeled peptides were sacrificed at 30 min and 2 h p.i. Selected tissues and organs were collected, weighed, and counted for radioactivity using a γ-counter (Wallac Wizard 1480, Perkin Elmer). The results were listed as a percentage of the injected activity per gram of tissue mass (% IA/g), using counts of a defined volume of the original injection solution counted at the same time. The data were analyzed for significance using a two-way ANOVA test (Graph Pad Prism 6 software, version 6.05). A p-value of < 0.05 was considered statistically significant.
# AR42J tumor-bearing mice = assay: PET/CT imaging of AR42J tumor-bearing mice; conditions: 3 h after i.v. injection of ~10 MBq (~1 nmol; ^44Sc-NODAGA-NOC ~3 nmol), one or two mice
# Protocol: A bench-top preclinical PET scanner (G8, Sofie Biosciences, California, U.S.A. and Perkin Elmer, Massachusetts, U.S.A.) was employed for the PET scans of the tumor-bearing mice. The energy window was set to 150–650 keV. Mice were injected intravenously with ^44Sc- or ^68Ga-labeled peptides (~10 MBq, ~1 nmol per mouse) in a volume of 100–200 μL. The PET scans were performed 3 h and 5 h after injection of the ^44Sc-labeled peptides and 3 h after injection of the ^68Ga-labeled peptides, using G8 acquisition software (version 2.0.0.10). All static PET scans lasted for 20 min. During the acquisition the mice were anesthetized by inhalation of a mixture of isoflurane and oxygen. The images were reconstructed with maximum-likelihood expectation maximization (MLEM). Gauss post-reconstruction filtering was performed using VivoQuant post-processing software (version 2.10, inviCRO Imaging Services and Software, Boston, U.S.A.).
# [2] = AR42J tumor / blood, Tumor-to-blood ratio
# [3] = AR42J tumor / kidneys, Tumor-to-kidney ratio
# [4] = AR42J tumor / liver, Tumor-to-liver ratio
smiles,measurement,setting,value
"C[C@@H](O)[C@@H]1NC(=O)[C@H](CCCCN)NC(=O)[C@@H](Cc2c[nH]c3ccccc23)NC(=O)[C@H](Cc2cccc3ccccc23)NC(=O)[C@@H](NC(=O)[C@@H](Cc2ccccc2)NC(=O)CCC(C(=O)O)N2CCN(CC(=O)O)CCN(CC(=O)O)CC2)CSSC[C@@H](C(=O)N[C@H](CO)[C@@H](C)O)NC1=O (some centres unmarked) [^44Sc-NODAGA-NOC, metal not drawn]",tissue to tissue ratio at 0.5 h,[1]; [2],5.23 ± 0.22
same,tissue to tissue ratio at 2 h,[1]; [2],50.3 ± 16.8
same,tissue to tissue ratio at 5 h,[1]; [2],78.6 ± 6.95
same,tissue to tissue ratio at 0.5 h,[1]; [3],0.8 ± 0.1
same,tissue to tissue ratio at 2 h,[1]; [3],1.22 ± 0.34
same,tissue to tissue ratio at 5 h,[1]; [3],0.87 ± 0.24
same,tissue to tissue ratio at 0.5 h,[1]; [4],8.13 ± 0.72
same,tissue to tissue ratio at 5 h,[1]; [4],11.6 ± 1.51
same,tissue uptake at 0.5 h,[1]; AR42J tumor,9.9 ± 0.66 %ID/g
same,tissue uptake at 2 h,[1]; AR42J tumor,10.2 ± 1.17 %ID/g
same,tissue uptake at 5 h,[1]; AR42J tumor,10.8 ± 0.37 %ID/g
same,tissue uptake at 5 h,[1]; adrenals,2.87 ± 0.95 %ID/g
same,tissue uptake at 0.5 h,[1]; blood,1.89 ± 0.08 %ID/g
same,tissue uptake at 2 h,[1]; blood,0.22 ± 0.06 %ID/g
same,tissue uptake at 5 h,[1]; blood,0.14 ± 0.01 %ID/g
same,tissue uptake at 0.5 h,[1]; bone,1.38 ± 0.17 %ID/g
same,tissue uptake at 5 h,[1]; bone,0.46 ± 0.06 %ID/g
same,tissue uptake at 0.5 h,[1]; brain,0.09 ± 0.01 %ID/g
same,tissue uptake at 5 h,[1]; brain,0.06 ± 0.01 %ID/g
same,tissue uptake at 5 h,[1]; heart,0.3 ± 0.04 %ID/g
same,tissue uptake at 0.5 h,"[1]; intestines, 5 MBq per mouse",0.74 ± 0.1 %ID/g
same,tissue uptake at 2 h,[1]; intestines,0.29 ± 0.07 %ID/g
same,tissue uptake at 5 h,[1]; intestines,0.38 ± 0.06 %ID/g
same,tissue uptake at 0.5 h,[1]; kidneys,12.4 ± 1.41 %ID/g
same,tissue uptake at 2 h,[1]; kidneys,8.64 ± 1.62 %ID/g
same,tissue uptake at 5 h,[1]; kidneys,13 ± 2.98 %ID/g
same,tissue uptake at 0.5 h,[1]; liver,1.22 ± 0.11 %ID/g
same,tissue uptake at 2 h,[1]; liver,0.88 ± 0.15 %ID/g
same,tissue uptake at 5 h,[1]; liver,0.94 ± 0.12 %ID/g
same,tissue uptake at 0.5 h,[1]; lung,4.28 ± 0.03 %ID/g
same,tissue uptake at 2 h,[1]; lung,1.19 ± 0.28 %ID/g
same,tissue uptake at 5 h,[1]; lung,0.89 ± 0.14 %ID/g
same,tissue uptake at 0.5 h,[1]; muscle,0.66 ± 0.08 %ID/g
same,tissue uptake at 5 h,[1]; muscle,0.26 ± 0.07 %ID/g
same,tissue uptake at 0.5 h,"[1]; pancreas, 5 MBq per mouse",1.6 ± 0.12 %ID/g
same,tissue uptake at 2 h,"[1]; pancreas, 5 MBq per mouse",1.12 ± 0.07 %ID/g
same,tissue uptake at 5 h,"[1]; pancreas, 5 MBq per mouse",1.35 ± 0.29 %ID/g
same,tissue uptake at 0.5 h,[1]; spleen,0.91 ± 0.2 %ID/g
same,tissue uptake at 2 h,[1]; spleen,0.38 ± 0.05 %ID/g
same,tissue uptake at 5 h,[1]; spleen,0.47 ± 0.05 %ID/g
same,tissue uptake at 0.5 h,"[1]; stomach, 5 MBq per mouse",1.45 ± 0.28 %ID/g
same,tissue uptake at 2 h,"[1]; stomach, 5 MBq per mouse",1.26 ± 0.22 %ID/g
same,tissue uptake at 5 h,"[1]; stomach, 5 MBq per mouse",1.24 ± 0.09 %ID/g
same,PET/CT distribution of radioactivity (in words),AR42J tumor-bearing mice,accumulated solely in tumors and kidneys
